Measurements taken from patent US8350015B2, “Cyanine dye” (Kabushiki Kaisha Hayashibara Seibutsu Kagaku Kenkyujo, priority 2004, dated 2013).

Test: Optical resistance of cyanine dye thin membrane exposed to xenon lamp
Format: physicochemical
Details: xenon lamp 180 W/m^2, exposure 5.5 hours
Procedure: The resulting solution was poured dropwise on one side of a polished glass plate (5 cm×5 cm) and homogenously spread over the surface of the plate by turning the plate at 1,000 rpm for one minute. Successively, thin membrane of the cyanine dye in this invention was formed on the glass plate by drying in the ventilation of warm and cooled air in this order. Immediately after determining optical transmittance (T0) of the cyanine dye in the form of thin membrane at absorption maximum (about 450 nm) wavelength, the membrane was exposed to xenon lamp (light-irradiation energy of 180 W/m^2 on the plate surface) in the ventilation of cooled air while placing […] xenon lamp with a prescribed distance away from the glass plate, after which the membrane was immediately determined for optical transmittance (T) at absorption maximum wavelength. Thereafter, residual dye rate (%) was calculated by substituting the obtained optical transmittances (T and T0) to Formula 1. In parallel, another thin membrane formed by cyanine dye represented by Chemical Formula 14 (Control 1), a additional thin membrane formed by cyanine dye represented by Chemical Formula 16 (Control 2), a further thin membrane formed by cyanine dye represented by Chemical Formula 14 and an equimolar azometallic complex represented by Chemical Formula 15 as an optical resistance-improving agent (Control 3), and one more additional thin membrane formed by cyanine dye represented by Chemical Formula 16 and an equimolar azometallic complex represented by Chemical Formula 15 as an optical resistance-improving agent (Control 4) were determined for optical resistance similarly as above.

[1] = thin membrane on glass plate, no optical resistance-improving agent, transmittance at absorption maximum (about 450 nm)
[2] = thin membrane with equimolar azometallic complex Chemical Formula 15 as optical resistance-improving agent

| Compound | Residual dye rate (%) [1] [%] | Residual dye rate (%) [2] [%] |
| --- | --- | --- |
| CN1C(=CC2=[N+](C)c3ccc4ccccc4c3C2(C)C)C(C)(C)c2c1ccc1ccccc21 [Chemical Formula 16] | 30.1 | 92.2 |
| CN1C(=CC2=[N+](C)c3ccccc3C2(C)C)C(C)(C)c2ccccc21 [Chemical Formula 14] | 29.3 | 91.7 |
